Patent US10597388B2, “Pyridazinone herbicides” (FMC CORPORATION, priority 2014, dated 2020)

Assays:
Format in all cases: in vivo
[1] = system: kochia (Kochia scoparia); assay: Test C greenhouse herbicide test, postemergence
In short: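 Test chemicals were applied postemergence to greenhouse plants at the 1- to 4-leaf stage (2–18 cm tall) growing in peat/vermiculite medium. After 13–15 d, injury was rated visually against untreated controls on a 0–100 scale (0 = no effect, 100 = complete control).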

[2] = system: crabgrass, large (large crabgrass, Digitaria sanguinalis); assay: Test C greenhouse herbicide test, pre- and postemergence
In short: (§1)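 Visual 0–100 injury score (100 = complete control) taken against untreated controls after 13–15 d in greenhouse. Test chemicals, formulated in solvent plus surfactant, applied preemergence to seeds in loam–sand soil or postemergence to 1- to 4-leaf plants (2–18 cm).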

[3] = system: morningglory (Ipomoea coccinea); assay: as above
In short: as §1

[4] = system: johnsongrass (Sorghum halepense); assay: as above
In short: as §1

[5] = system: wheat (winter wheat, Triticum aestivum); assay: as above
In short: as §1

[6] = system: corn (Zea mays); assay: as above
In short: as §1

[7] = system: blackgrass (Alopecurus myosuroides); assay: as above
In short: as §1

[8] = system: pigweed (Amaranthus retroflexus); assay: as above
In short: as §1

[9] = system: lambsquarters (Chenopodium album); assay: as above
In short: as §1

[10] = system: waterhemp (common waterhemp, Amaranthus rudis); assay: as above
In short: as §1

[11] = system: foxtail, giant (giant foxtail, Setaria faberii); assay: as above
In short: as §1

[12] = system: ragweed (common ragweed, Ambrosia elatior); assay: as above
In short: as §1

[13] = system: oilseed rape (Brassica napus); assay: as above
In short: as §1

[14] = system: ryegrass, Italian (Italian ryegrass, Lolium multiflorum); assay: as above
In short: as §1

[15] = system: soybean (Glycine max); assay: as above
In short: as §1

[16] = system: nutsedge, yellow (yellow nutsedge, Cyperus esculentus); assay: as above; conditions: Preemergence; for Plant response rating, Nutsedge, Yellow: scale 0 to 100, 0 is no effect, 100 is complete control
In short: as §1

[17] = Postemergence, 31 g ai/ha, 0 to 100 scale (0 no effect, 100 complete control)
[18] = Postemergence, 125 g ai/ha, scale 0 to 100, 0 is no effect, 100 is complete control
[19] = Postemergence, 250 g ai/ha, scale 0 to 100, 0 no effect, 100 complete control, 13 to 15 d
[20] = postemergence, 62 g ai/ha, scale 0 to 100, 0 no effect, 100 complete control
[21] = Preemergence, 31 g ai/ha, scale 0 to 100, 0 is no effect, 100 is complete control
[22] = Preemergence, 62 g ai/ha, scale 0 to 100, 0 is no effect, 100 is complete control
[23] = Preemergence, 125 g ai/ha, scale 0 to 100, 0 is no effect, 100 is complete control
[24] = Preemergence, 250 g ai/ha, scale 0 to 100 (0 no effect, 100 complete control)

SMILES: Cc1ccc2sc(C)c(-c3c(O)c(C)nn(C)c3=O)c2c1 [Compound 1, 4-(2,5-dimethylbenzo[b]thien-3-yl)-5-hydroxy-2,6-dimethyl-3(2H)-pyridazinone]
- Kochia plant response rating [1, 17]: 95
- Plant response rating, Kochia [1, 18]: 95
- Plant response rating, Kochia [1, 19]: 100
- Kochia plant response rating [1, 20]: 95
- Crabgrass, Large plant response rating [2, 17]: 20
- Plant response rating, Crabgrass, Large [2, 18]: 25
- Plant response rating, Crabgrass, Large [2, 19]: 35
- Plant response rating, Crabgrass, Large [2, 21]: 35
- Plant response rating, Crabgrass, Large [2, 22]: 40
- Plant response rating, Crabgrass, Large [2, 23]: 80
- Crabgrass, Large plant response rating [2, 24]: 100
- Crabgrass, Large plant response rating [2, 20]: 10
- Morningglory plant response rating [3, 17]: 100
- Plant response rating, Morningglory [3, 18]: 100
- Plant response rating, Morningglory [3, 19]: 100
- Plant response rating, Morningglory [3, 21]: 95
- Plant response rating, Morningglory [3, 22]: 100
- Plant response rating, Morningglory [3, 23]: 100
- Morningglory plant response rating [3, 24]: 100
- Morningglory plant response rating [3, 20]: 100
- Johnsongrass plant response rating [4, 17]: 0
- Plant response rating, Johnsongrass [4, 18]: 0
- Plant response rating, Johnsongrass [4, 19]: 15
- Plant response rating, Johnsongrass [4, 21]: 0
- Plant response rating, Johnsongrass [4, 22]: 5
- Plant response rating, Johnsongrass [4, 23]: 5
- Johnsongrass plant response rating [4, 24]: 5
- Johnsongrass plant response rating [4, 20]: 0
- Wheat plant response rating [5, 17]: 0
- Plant response rating, Wheat [5, 18]: 10
- Plant response rating, Wheat [5, 19]: 15
- Plant response rating, Wheat [5, 22]: 0
- Plant response rating, Wheat [5, 23]: 5
- Wheat plant response rating [5, 24]: 20
- Wheat plant response rating [5, 20]: 0
- Corn plant response rating [6, 17]: 0
- Plant response rating, Corn [6, 18]: 5
- Plant response rating, Corn [6, 19]: 40
- Plant response rating, Corn [6, 21]: 0
- Plant response rating, Corn [6, 22]: 0
- Plant response rating, Corn [6, 23]: 0
- Corn plant response rating [6, 24]: 5
- Corn plant response rating [6, 20]: 25
- Blackgrass plant response rating [7, 17]: 20
- Plant response rating, Blackgrass [7, 18]: 60
- Plant response rating, Blackgrass [7, 19]: 75
- Plant response rating, Blackgrass [7, 21]: 60
- Plant response rating, Blackgrass [7, 22]: 90
- Plant response rating, Blackgrass [7, 23]: 90
- Blackgrass plant response rating [7, 24]: 90
- Blackgrass plant response rating [7, 20]: 50
- Pigweed plant response rating [8, 17]: 95
- Plant response rating, Pigweed [8, 18]: 98
- Plant response rating, Pigweed [8, 19]: 100
- Plant response rating, Pigweed [8, 21]: 100
- Plant response rating, Pigweed [8, 22]: 100
- Plant response rating, Pigweed [8, 23]: 100
- Pigweed plant response rating [8, 24]: 100
- Pigweed plant response rating [8, 20]: 95
- Lambsquarters plant response rating [9, 17]: 85
- Plant response rating, Lambsquarters [9, 18]: 100
- Plant response rating, Lambsquarters [9, 19]: 100
- Plant response rating, Lambsquarters [9, 21]: 80
- Plant response rating, Lambsquarters [9, 22]: 95
- Plant response rating, Lambsquarters [9, 23]: 100
- Lambsquarters plant response rating [9, 24]: 100
- Lambsquarters plant response rating [9, 20]: 100
- Waterhemp plant response rating [10, 17]: 95
- Plant response rating, Waterhemp [10, 18]: 100
- Plant response rating, Waterhemp [10, 19]: 100
- Plant response rating, Waterhemp [10, 22]: 100
- Plant response rating, Waterhemp [10, 23]: 100
- Waterhemp plant response rating [10, 24]: 100
- Waterhemp plant response rating [10, 20]: 95
- Foxtail, Giant plant response rating [11, 17]: 35
- Plant response rating, Foxtail, Giant [11, 18]: 60
- Plant response rating, Foxtail, Giant [11, 19]: 90
- Plant response rating, Foxtail, Giant [11, 21]: 55
- Plant response rating, Foxtail, Giant [11, 22]: 75
- Plant response rating, Foxtail, Giant [11, 23]: 100
- Foxtail, Giant plant response rating [11, 24]: 100
- Foxtail, Giant plant response rating [11, 20]: 15
- Ragweed plant response rating [12, 17]: 90
- Plant response rating, Ragweed [12, 18]: 95
- Plant response rating, Ragweed [12, 19]: 95
- Plant response rating, Ragweed [12, 21]: 90
- Plant response rating, Ragweed [12, 22]: 80
- Plant response rating, Ragweed [12, 23]: 100
- Ragweed plant response rating [12, 24]: 98
- Ragweed plant response rating [12, 20]: 95
- Oilseed Rape plant response rating [13, 17]: 0
- Plant response rating, Oilseed Rape [13, 18]: 5
- Plant response rating, Oilseed Rape [13, 19]: 40
- Plant response rating, Oilseed Rape [13, 21]: 0
- Plant response rating, Oilseed Rape [13, 22]: 5
- Oilseed Rape plant response rating [13, 24]: 20
- Oilseed Rape plant response rating [13, 20]: 0
- Ryegrass, Italian plant response rating [14, 17]: 80
- Plant response rating, Ryegrass, Italian [14, 18]: 95
- Plant response rating, Ryegrass, Italian [14, 19]: 98
- Plant response rating, Ryegrass, Italian [14, 21]: 95
- Plant response rating, Ryegrass, Italian [14, 22]: 100
- Plant response rating, Ryegrass, Italian [14, 23]: 100
- Ryegrass, Italian plant response rating [14, 24]: 100
- Ryegrass, Italian plant response rating [14, 20]: 90
- Soybean plant response rating [15, 17]: 0
- Plant response rating, Soybean [15, 18]: 5
- Plant response rating, Soybean [15, 19]: 5
- Plant response rating, Soybean [15, 22]: 0
- Plant response rating, Soybean [15, 23]: 0
- Soybean plant response rating [15, 24]: 0
- Soybean plant response rating [15, 20]: 0
- Plant response rating, Nutsedge, Yellow ([16]; 31 g ai/ha): 40
- Plant response rating, Nutsedge, Yellow ([16]; 62 g ai/ha): 35
- Plant response rating, Nutsedge, Yellow ([16]; 125 g ai/ha): 70
- Nutsedge, Yellow plant response rating ([16]; 250 g ai/ha, scale 0 to 100 (0 no effect, 100 complete control)): 75
